Reference: patent US20240180880A1, “METHODS OF USING EHMT2 INHIBITORS IN TREATING OR PREVENTING BLOOD DISORDERS” (Epizyme, Inc., priority 2017, published 2024)
Where two headings read alike, the source gives them in different places.

System: 284 cell lines
Experiment: cells
Protocol: A screen of 284 cell lines to assess the antiproliferative effect of EHMT2 inhibition was conducted by treating cell lines in 384-well format with a half-log step dilutions of Compound 205 over 10 concentrations with a maximum concentration of 0.1% v/v DMSO. Cells were plated on Day 0 and treated with compound on Day 1. Culture medium was replaced on day 7 and cells redosed. After 10-day incubation, cells were fixed and stained with nuclear dye. Automated fluorescence microscopy was carried out using a Molecular Devices ImageXpress Micro XL high-content imager, and images were collected with a 4× objective. 16-bit TIFF images were acquired and analyzed with MetaXpress 5.1.0.41 software. Cell proliferation was measured by the fluorescence intensity of the incorporated nuclear dye. Cell count IC50 is the test compound concentration at 50% of maximal response of the untreated control.

CNc1cc(C)nc(Nc2ccc(OC)c(OCCCN3CCCC3)c2)n1 [Compound 205]
IC50 (BM-1604, read-out: Cell Count IC50, BM-1604, Prostate): > 10 µM | IC50 (C32TG, read-out: Cell Count IC50, C32TG, Skin, Melanoma): 1 to 10 µM | IC50 (CEM/C1, read-out: Cell Count IC50, CEM-C1, Hematopoietic, Leukemia): > 10 µM | IC50 (CML-T1, read-out: Cell Count IC50, CML-T1, Hematopoietic, Leukemia): 1 to 10 µM | IC50 (D341 Med, read-out: Cell Count IC50, D341 Med, Central Nervous System, Medulloblastoma): 1 to 10 µM | IC50 (HUH-6-clone5, read-out: Cell Count IC50, HUH-6 Clone 5, Liver): 1 to 10 µM | IC50 (Homo sapiens, 22Rv1, read-out: Cell Count IC50, 22Rv1, Prostate): 1 to 10 µM | IC50 (Homo sapiens, 639-V, read-out: Cell Count IC50, 639-V, Bladder): > 10 µM | IC50 (Homo sapiens, 647-V, read-out: Cell Count IC50, 647-V, Bladder): 1 to 10 µM | IC50 (Homo sapiens, 769-P, read-out: Cell Count IC50, 769-P, Kidney): 1 to 10 µM | IC50 (Homo sapiens, 786-0, read-out: Cell Count IC50, 786-O, Kidney): > 10 µM | IC50 (Homo sapiens, A101D, read-out: Cell Count IC50): 1 to 10 µM | IC50 (Homo sapiens, A 172, read-out: Cell Count IC50, A172, Central Nervous System, Glioma): 1 to 10 µM | IC50 (Homo sapiens, A204, read-out: Cell Count IC50, A204, Soft & Connective Tissue, Sarcoma): 0.01 to 0.1 µM | IC50 (Homo sapiens, A253, read-out: Cell Count IC50, A-253, Head and Neck): > 10 µM | IC50 (Homo sapiens, A498, read-out: Cell Count IC50, A498, Kidney): 1 to 10 µM | IC50 (Homo sapiens, A549, read-out: Cell Count IC50, A549, Lung, NSCLC): > 10 µM | IC50 (Homo sapiens, A673, read-out: Cell Count IC50, A-673, Soft & Connective Tissue, Sarcoma): > 10 µM | IC50 (Homo sapiens, A704, read-out: Cell Count IC50, A-704, Kidney): 1 to 10 µM | IC50 (Homo sapiens, A2058, read-out: Cell Count IC50, A2058, Skin, Melanoma): 1 to 10 µM | IC50 (Homo sapiens, A-375, read-out: Cell Count IC50, A375, Skin, Melanoma): 1 to 10 µM | IC50 (Homo sapiens, A-427, read-out: Cell Count IC50, A427, Lung, NSCLC): 1 to 10 µM | IC50 (Homo sapiens, A-431, read-out: Cell Count IC50, A431, Skin, Head and Neck): 1 to 10 µM | IC50 (Homo sapiens, ACHN, read-out: Cell Count IC50, ACHN, Kidney): 1 to 10 µM | IC50 (Homo sapiens, AN3-CA, read-out: Cell Count IC50, AN3 CA, Female GU, Uterus): > 10 µM | IC50 (Homo sapiens, ARH-77, read-out: Cell Count IC50, ARH-77, Hematopoietic, Myeloma): 1 to 10 µM | IC50 (Homo sapiens, ASPC1, read-out: Cell Count IC50, AsPC-1, Pancreas): 1 to 10 µM | IC50 (Homo sapiens, BE(2)-C, read-out: Cell Count IC50, BE(2)C, Central Nervous System, Neuroblastoma): > 10 µM | IC50 (Homo sapiens, BFTC-905, read-out: Cell Count IC50, BFTC-905, Bladder): 0.01 to 0.1 µM | IC50 (Homo sapiens, BHT-101, read-out: Cell Count IC50, BHT-101, Endocrine, Thyroid): 1 to 10 µM | IC50 (Homo sapiens, BPH-1, read-out: Cell Count IC50, BPH1, Prostate): > 10 µM | IC50 (Homo sapiens, BT-20, read-out: Cell Count IC50, BT20, Breast): > 10 µM | IC50 (Homo sapiens, BT-474, read-out: Cell Count IC50, BT474, Breast): 1 to 10 µM | IC50 (Homo sapiens, BT-549, read-out: Cell Count IC50, BT-549, Breast): > 10 µM | IC50 (Homo sapiens, BV-173, read-out: Cell Count IC50, BV-173, Hematopoietic, Leukemia): 1 to 10 µM | IC50 (Homo sapiens, BXPC-3, read-out: Cell Count IC50, BxPC-3, Pancreas): 1 to 10 µM | IC50 (Homo sapiens, BeWo, read-out: Cell Count IC50, BeWo, Placenta): > 10 µM | IC50 (Homo sapiens, C-4-II, read-out: Cell Count IC50, C-4 II, Female GU, Cervix): > 10 µM | IC50 (Homo sapiens, C-33-A, read-out: Cell Count IC50, C-33A, Female GU, Cervix): > 10 µM | IC50 (Homo sapiens, CA46, read-out: Cell Count IC50, CA46, Hematopoietic, Lymphoma): 1 to 10 µM | IC50 (Homo sapiens, CAKI-1, read-out: Cell Count IC50, Caki-1, Kidney): 1 to 10 µM | IC50 (Homo sapiens, CAKI-2, read-out: Cell Count IC50, Caki-2, Kidney): 1 to 10 µM | IC50 (Homo sapiens, CAL-27, read-out: Cell Count IC50, Cal 27, Head and Neck): 1 to 10 µM | IC50 (Homo sapiens, CAL-62, read-out: Cell Count IC50, CAL-62, Endocrine, Thyroid): > 10 µM | IC50 (Homo sapiens, CAMA-1, read-out: Cell Count IC50, CAMA-1, Breast): 1 to 10 µM | IC50 (Homo sapiens, CAPAN-1, read-out: Cell Count IC50, Capan-1, Pancreas): > 10 µM | IC50 (Homo sapiens, CCF-STTG1, read-out: Cell Count IC50, CCF-STTG1, Central Nervous System, Glioma): 1 to 10 µM | IC50 (Homo sapiens, CCRF-CEM, read-out: Cell Count IC50, CCRFCEM, Hematopoietic, Leukemia): > 10 µM | IC50 (Homo sapiens, CFPAC-1, read-out: Cell Count IC50, CFPAC-1, Pancreas): > 10 µM | IC50 (Homo sapiens, CGTH-W-1, read-out: Cell Count IC50, CGTH-W-1, Endocrine, Thyroid): > 10 µM | IC50 (Homo sapiens, CHL-1, read-out: Cell Count IC50, CHL-1, Skin, Melanoma): > 10 µM | IC50 (Homo sapiens, CHP-212, read-out: Cell Count IC50, CHP-212, Central Nervous System, Neuroblastoma): 0.1 to 1 µM | IC50 (Homo sapiens, COLO 201, read-out: Cell Count IC50, Colo 201, Colon): 1 to 10 µM | IC50 (Homo sapiens, COLO 205, read-out: Cell Count IC50, Colo 205, Colon): 1 to 10 µM | IC50 (Homo sapiens, COLO 320DM, read-out: Cell Count IC50, Colo 320DM, Colon): > 10 µM | IC50 (Homo sapiens, COLO-320-HSR, read-out: Cell Count IC50, Colo 320 HSR, Colon): > 10 µM | IC50 (Homo sapiens, COLO-829, read-out: Cell Count IC50, COLO 829, Skin, Melanoma): 1 to 10 µM | IC50 (Homo sapiens, COR-L23, read-out: Cell Count IC50, COR-L23, Lung, NSCLC): 1 to 10 µM | IC50 (Homo sapiens, COR-L105, read-out: Cell Count IC50, COR-L105, Lung, NSCLC): 1 to 10 µM | IC50 (Homo sapiens, Ca-Ski, read-out: Cell Count IC50, Ca Ski, Female GU, Cervix): 0.1 to 1 µM | IC50 (Homo sapiens, Calu-1, read-out: Cell Count IC50, Calu1, Lung, NSCLC): > 10 µM | IC50 (Homo sapiens, Calu-6, read-out: Cell Count IC50, Calu6, Lung, NSCLC): > 10 µM | IC50 (Homo sapiens, Caov-3, read-out: Cell Count IC50, CaOV3, Female GU, Ovary): 1 to 10 µM | IC50 (Homo sapiens, Capan-2, read-out: Cell Count IC50, Capan-2, Pancreas): > 10 µM | IC50 (Homo sapiens, ChaGo-K-1, read-out: Cell Count IC50, ChaGoK1, Lung, NSCLC): > 10 µM | IC50 (Homo sapiens, D283 Med, read-out: Cell Count IC50, D283 Med, Central Nervous System, Medulloblastoma): 1 to 10 µM | IC50 (Homo sapiens, DBTRG-05MG, read-out: Cell Count IC50, DBTRG-05MG, Central Nervous System, Glioma): 1 to 10 µM | IC50 (Homo sapiens, DLD-1, read-out: Cell Count IC50, DLD-1, Colon): > 10 µM | IC50 (Homo sapiens, DMS-53, read-out: Cell Count IC50, DMS53, Lung, SCLC): 0.1 to 1 µM | IC50 (Homo sapiens, DMS-114, read-out: Cell Count IC50, DMS114, Lung, SCLC): 1 to 10 µM | IC50 (Homo sapiens, DOHH-2, read-out: Cell Count IC50, DOHH-2, Hematopoietic, Lymphoma): 1 to 10 µM
